Results taken from ChEMBL document CHEMBL1201862, “PubChem BioAssay data set” (2004).
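A five-concentration, 48-hour dose response in 96-well plates underlies each endpoint, interpolated linearly between surrounding concentrations. Here, GI50 denotes the concentration required for 50% inhibition of growth.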 The source made the active and inactive calls. No stated cut-off is given here; in the data, active = GI50 up to about 1.1 µM and inactive = higher.

Legend:
Assay in all cases: inhibition of tumour cell growth, NCI panel, 48 h
KM12 = test system: KM12
NCI-H226 = test system: NCI-H226
NCI-H522 = test system: NCI-H522
UO-31 = test system: UO-31
NCI-H23 = test system: NCI-H23
IGROV-1 = test system: IGROV-1
SK-MEL-28 = test system: SK-MEL-28
Hs-578T = test system: Hs-578T
NCI/ADR-RES = test system: NCI/ADR-RES
M14 = test system: M14
U-251 = test system: U-251
MCF7 = test system: MCF7
RPMI-8226 = test system: RPMI-8226
786-0 = test system: 786-0
SR = test system: SR
OVCAR-4 = test system: OVCAR-4
A498 = test system: A498
SNB-19 = test system: SNB-19
COLO 205 = test system: COLO 205
SN12C = test system: SN12C

Measured: GI50

C=CC(c1ccccc1)C1(O)c2cccc(O)c2C(=O)c2c(O)cccc21 (stereo unspecified)
inactive: KM12 12.8 µM | NCI-H226 19.4 µM | NCI-H522 11.7 µM | UO-31 19.8 µM | NCI-H23 13.4 µM | IGROV-1 14.9 µM | SK-MEL-28 18.8 µM | Hs-578T 15.8 µM | NCI/ADR-RES 11.5 µM | M14 18.4 µM | U-251 11.7 µM | MCF7 17.1 µM | RPMI-8226 18.5 µM | 786-0 17.4 µM | SR 5.89 µM | OVCAR-4 13.7 µM | A498 19.6 µM

OC(c1ccc(Cl)cc1)(c1ccc(Cl)cc1)c1cncnc1
inactive: KM12 17.6 µM | NCI-H226 20.7 µM | SNB-19 22.5 µM | UO-31 16 µM | NCI-H23 26.3 µM | COLO 205 19 µM | SN12C 26.7 µM | IGROV-1 > 10 µM | SK-MEL-28 18.7 µM | Hs-578T 25.3 µM | NCI/ADR-RES 26.4 µM | M14 16.7 µM | U-251 19.3 µM | MCF7 25.9 µM | RPMI-8226 27.2 µM | SR 31.7 µM | OVCAR-4 14.7 µM | A498 21.2 µM

O=c1[nH]c(=O)n(CCOc2ccc(Cl)cc2)cc1Nc1ccccc1
inactive: KM12 > 100 µM | SNB-19 > 100 µM | UO-31 58.5 µM | NCI-H23 > 100 µM | COLO 205 > 100 µM | SN12C > 100 µM | IGROV-1 > 100 µM | SK-MEL-28 > 100 µM | Hs-578T 29.2 µM | NCI/ADR-RES > 100 µM | M14 > 100 µM | U-251 > 100 µM | MCF7 > 100 µM | RPMI-8226 > 100 µM | 786-0 44.3 µM | SR > 100 µM | OVCAR-4 49 µM | A498 > 100 µM

C=C(C)C(=O)N1c2ccc(OC)cc2CC1C(=O)OCC (stereo unspecified)
inactive: KM12 > 100 µM | NCI-H226 > 100 µM | NCI-H522 > 100 µM | SNB-19 > 100 µM | UO-31 > 100 µM | NCI-H23 > 100 µM | COLO 205 > 100 µM | SN12C > 100 µM | IGROV-1 > 100 µM | SK-MEL-28 > 100 µM | Hs-578T > 100 µM | NCI/ADR-RES > 100 µM | M14 > 100 µM | U-251 > 100 µM | MCF7 > 100 µM | 786-0 > 100 µM | SR > 100 µM | OVCAR-4 > 100 µM | A498 > 100 µM

COc1ccc(C)cc1NC(=S)N/N=C/c1ccc(SC)cc1
inactive: KM12 67.5 µM | NCI-H522 82.2 µM | SNB-19 > 100 µM | UO-31 84.3 µM | NCI-H23 50.2 µM | COLO 205 40.1 µM | SN12C > 100 µM | IGROV-1 42.8 µM | SK-MEL-28 86.7 µM | Hs-578T > 100 µM | NCI/ADR-RES 60.1 µM | M14 25.5 µM | MCF7 > 100 µM | RPMI-8226 27.9 µM | 786-0 83.6 µM | SR 38.5 µM | OVCAR-4 57.8 µM | A498 > 100 µM

O=c1[nH]nc(Nc2ccccc2)c2nnn(Cc3ccccc3)c12
inactive: KM12 > 100 µM | NCI-H226 20.3 µM | NCI-H522 > 100 µM | SNB-19 74 µM | UO-31 > 100 µM | NCI-H23 > 100 µM | COLO 205 > 100 µM | SN12C > 100 µM | IGROV-1 > 100 µM | SK-MEL-28 > 100 µM | Hs-578T 17.6 µM | NCI/ADR-RES 50.8 µM | M14 > 100 µM | U-251 30.7 µM | MCF7 > 100 µM | 786-0 25.3 µM | SR > 100 µM | OVCAR-4 8.32 µM | A498 > 100 µM

O=C(CN1CCN(c2ccccn2)CC1)N1CCCn2c1nc1ccccc1c2=O
inactive: KM12 > 100 µM | NCI-H226 > 100 µM | NCI-H522 > 100 µM | SNB-19 > 100 µM | UO-31 > 100 µM | NCI-H23 > 100 µM | COLO 205 > 100 µM | SN12C > 100 µM | IGROV-1 > 100 µM | Hs-578T > 100 µM | NCI/ADR-RES > 100 µM | M14 > 100 µM | U-251 > 100 µM | MCF7 > 100 µM | RPMI-8226 > 100 µM | 786-0 > 100 µM | SR > 100 µM | OVCAR-4 > 100 µM | A498 > 100 µM

N#CCCN(CCCN(C(=O)Nc1ccc(NC(=O)N(CCCN(CCC#N)C(N)=O)c2ccccc2)cc1)c1ccccc1)C(N)=O
inactive: KM12 > 100 µM | NCI-H226 > 100 µM | NCI-H522 > 100 µM | SNB-19 > 100 µM | UO-31 > 100 µM | NCI-H23 > 100 µM | COLO 205 > 100 µM | SK-MEL-28 > 100 µM | Hs-578T > 100 µM | NCI/ADR-RES > 100 µM | M14 > 100 µM | U-251 > 100 µM | MCF7 4.72 µM | RPMI-8226 > 100 µM | 786-0 > 100 µM | SR > 100 µM | OVCAR-4 > 100 µM | A498 > 100 µM
